“And” between values parts separate entries of the source, which are not always exact repeats. Identical values can stand only once.
Test system: DOHH2 cells
Test: RT2 Glucocorticoid signaling PCR array, DOHH2 cell line (Table 4b)
Assay type: cell-based
Conditions: DOHH2, 4 days

C[C@]12C=CC(=O)C=C1CC[C@@H]1[C@@H]2[C@@H](O)C[C@@]2(C)[C@H]1CC[C@]2(O)C(=O)CO [Prednisolone, prednisolone]
ACTB Ct Values: 14.721
ADARB1 Ct Values: 33.560
AFF1 Ct Values: 23.992
AK2 Ct Values: 20.262
AMPD3 Ct Values: 27.535
ANGPTL4 Ct Values: 31.538
ANXA4 Ct Values: 24.997
ARID68 Ct Values: 23.885
ASPH Ct Values: 23.369
ATF4 Ct Values: 19.313
B2M Ct Values: 18.884
BCL6 Ct Values: 21.801
BMPER Ct Values: 39.378
CEBPA Ct Values: 32.188
CEBPB Ct Values: 24.317
COL4A2 Ct Values: 38.993
CREB1 Ct Values: 22.890
CREB3 Ct Values: 24.865
CREB3L4 Ct Values: 24.616
CTGF Ct Values: 33.728
CYB561 Ct Values: 39.582
DDIT4 Ct Values: 24.105
DUSP1 Ct Values: 27.866
EDN1 Ct Values: 32.263
EHD3 Ct Values: 31.098
ERRFI1 Ct Values: 32.635
FK8PS Ct Values: 20.912
FOSL2 Ct Values: 31.543
GAPDH Ct Values: 16.551
GDPD1 Ct Values: 27.884
GHRHR Ct Values: 36.095
GLUL Ct Values: 34.574
GOT1 Ct Values: 23.532
H6PD Ct Values: 24.696
HNRPLL Ct Values: 33.284
HPRT1 Ct Values: 21.777
IL1RN Ct Values: 33.560
IL6 Ct Values: 34.758
KLF9 Ct Values: 28.547
KLF13 Ct Values: 22.546
LOX Ct Values: 34.158
MERTK Ct Values: 32.892
NFKBIA Ct Values: 22.830
NR3C1 Ct Values: 22.794
PDCD7 Ct Values: 23.552
PDGFRB Ct Values: 34.934
PDP1 Ct Values: 25.682
PER1 Ct Values: 25.142
PER2 Ct Values: 24.159
PIK3R1 Ct Values: 23.850
PLD1 Ct Values: 37.120
PLEKHF1 Ct Values: 29.414
POU2F1 Ct Values: 24.648
POU2F2 Ct Values: 22.489
RASA3 Ct Values: 27.803
RGS2 Ct Values: 25.514
RHOB Ct Values: 33.162
RPLP0 Ct Values: 15.128
SESN1 Ct Values: 22.839
SGK1 Ct Values: 29.628
SLC10A6 Ct Values: 36.176
SLC19A2 Ct Values: 25.455
SLC22A5 Ct Values: 28.915
SNTA1 Ct Values: 25.124
SPHK1 Ct Values: 29.971
SPSB1 Ct Values: 26.911
STAT5A Ct Values: 23.565
STAT5B Ct Values: 22.632
TBL1XR1 Ct Values: 21.304
TNF Ct Values: 31.956
TSC22D3 Ct Values: 23.310
USP2 Ct Values: 23.501
USPS4 Ct Values: 26.683
VDR Ct Values: 26.847
VLDLR Ct Values: 28.584
ZFP36 Ct Values: 24.270
ZHX3 Ct Values: 24.418
ZNF281 Ct Values: 23.828
PPC Ct Values (array control, three lines): 18.684 and 18.699 and 19.076
RTC Ct Values (array control, three lines): 21.449 and 21.464 and 21.483
ADARB1 ΔCT (B2M) (normalized to B2M): 14.676
AFF1 ΔCT (B2M) (normalized to B2M): 5.108
AK2 ΔCT (B2M) (normalized to B2M): 1.378
AMPD3 ΔCT (B2M) (normalized to B2M): 8.651
ANGPTL4 ΔCT (B2M) (normalized to B2M): 12.654
ANXA4 ΔCT (B2M) (normalized to B2M): 6.113
ARID68 ΔCT (B2M) (normalized to B2M): 5.001
ASPH ΔCT (B2M) (normalized to B2M): 4.485
ATF4 ΔCT (B2M) (normalized to B2M): 0.429
B2M ΔCT (B2M) (normalized to B2M): 0.000
BCL6 ΔCT (B2M) (normalized to B2M): 2.917
BMPER ΔCT (B2M) (normalized to B2M): 20.494
CEBPA ΔCT (B2M) (normalized to B2M): 13.304
CEBPB ΔCT (B2M) (normalized to B2M): 5.433
COL4A2 ΔCT (B2M) (normalized to B2M): 20.109
CREB1 ΔCT (B2M) (normalized to B2M): 4.006
CREB3L4 ΔCT (B2M) (normalized to B2M): 5.732
CREB3 ΔCT (B2M) (normalized to B2M): 5.981
CTGF ΔCT (B2M) (normalized to B2M): 14.844
CYB561 ΔCT (B2M) (normalized to B2M): 20.698
DDIT4 ΔCT (B2M) (normalized to B2M): 5.221
DUSP1 ΔCT (B2M) (normalized to B2M): 8.982
EDN1 ΔCT (B2M) (normalized to B2M): 13.379
EHD3 ΔCT (B2M) (normalized to B2M): 12.214
ERRFI1 ΔCT (B2M) (normalized to B2M): 13.751
FK8PS ΔCT (B2M) (normalized to B2M): 2.028
FOSL2 ΔCT (B2M) (normalized to B2M): 12.659
GAPDH ΔCT (B2M) (normalized to B2M): −2.333
GDPD1 ΔCT (B2M) (normalized to B2M): 9.000
GHRHR ΔCT (B2M) (normalized to B2M): 17.211
GLUL ΔCT (B2M) (normalized to B2M): 15.690
GOT1 ΔCT (B2M) (normalized to B2M): 4.648
H6PD ΔCT (B2M) (normalized to B2M): 6.085
HNRPLL ΔCT (B2M) (normalized to B2M): 14.400
HPRT1 ΔCT (B2M) (normalized to B2M): 2.893
IL1RN ΔCT (B2M) (normalized to B2M): 14.676
IL6 ΔCT (B2M) (normalized to B2M): 19.457
KLF9 ΔCT (B2M) (normalized to B2M): 9.663
KLF13 ΔCT (B2M) (normalized to B2M): 3.662
LOX ΔCT (B2M) (normalized to B2M): 15.274
MERTK ΔCT (B2M) (normalized to B2M): 14.008
NFKBIA ΔCT (B2M) (normalized to B2M): 3.946
NR3C1 ΔCT (B2M) (normalized to B2M): 3.910
PDCD7 ΔCT (B2M) (normalized to B2M): 4.668
PDGFRB ΔCT (B2M) (normalized to B2M): 16.050
PDP1 ΔCT (B2M) (normalized to B2M): 6.798
PER1 ΔCT (B2M) (normalized to B2M): 6.258
PER2 ΔCT (B2M) (normalized to B2M): 5.275
PIK3R1 ΔCT (B2M) (normalized to B2M): 4.966
PLD1 ΔCT (B2M) (normalized to B2M): 18.236
PLEKHF1 ΔCT (B2M) (normalized to B2M): 10.530
POU2F1 ΔCT (B2M) (normalized to B2M): 5.764
POU2F2 ΔCT (B2M) (normalized to B2M): 3.605
RASA3 ΔCT (B2M) (normalized to B2M): 8.919
RGS2 ΔCT (B2M) (normalized to B2M): 6.630
RHOB ΔCT (B2M) (normalized to B2M): 14.278
RPLP0 ΔCT (B2M) (normalized to B2M): −3.756
SESN1 ΔCT (B2M) (normalized to B2M): 3.955
SGK1 ΔCT (B2M) (normalized to B2M): 10.744
SLC10A6 ΔCT (B2M) (normalized to B2M): 17.292
SLC19A2 ΔCT (B2M) (normalized to B2M): 6.571
SLC22A5 ΔCT (B2M) (normalized to B2M): 10.031
SNTA1 ΔCT (B2M) (normalized to B2M): 6.240
SPHK1 ΔCT (B2M) (normalized to B2M): 11.087
SPSB1 ΔCT (B2M) (normalized to B2M): 8.027
STAT5A ΔCT (B2M) (normalized to B2M): 5.001
STAT5B ΔCT (B2M) (normalized to B2M): 3.748
TBL1XR1 ΔCT (B2M) (normalized to B2M): 2.420
TNF ΔCT (B2M) (normalized to B2M): 13.072
TSC22D3 ΔCT (B2M) (normalized to B2M): 4.426
USP2 ΔCT (B2M) (normalized to B2M): 4.617
USPS4 ΔCT (B2M) (normalized to B2M): 7.799
VDR ΔCT (B2M) (normalized to B2M): 7.963
VLDLR ΔCT (B2M) (normalized to B2M): 9.700
ZFP36 ΔCT (B2M) (normalized to B2M): 5.386
ZHX3 ΔCT (B2M) (normalized to B2M): 5.534
ZNF281 ΔCT (B2M) (normalized to B2M): 4.944
RTC ΔCT (B2M) (normalized to B2M, array control, three lines): 2.565 and 2.580 and 2.599
ADARB1 ΔΔCT (vs DMSO): 1.867
AFF1 ΔΔCT (vs DMSO): −0.567
AK2 ΔΔCT (vs DMSO): 0.053
AMPD3 ΔΔCT (vs DMSO): 1.259
ANGPTL4 ΔΔCT (vs DMSO): 0.529
ANXA4 ΔΔCT (vs DMSO): 0.305
ARID68 ΔΔCT (vs DMSO): 0.129
ASPH ΔΔCT (vs DMSO): 0.524
ATF4 ΔΔCT (vs DMSO): 0.282
BCL6 ΔΔCT (vs DMSO): 0.397
BMPER ΔΔCT (vs DMSO): 1.466
CEBPA ΔΔCT (vs DMSO): −2.341
CEBPB ΔΔCT (vs DMSO): 0.531
COL4A2 ΔΔCT (vs DMSO): 6.804
CREB1 ΔΔCT (vs DMSO): 0.085
CREB3L4 ΔΔCT (vs DMSO): 0.336
CREB3 ΔΔCT (vs DMSO): 0.061
CTGF ΔΔCT (vs DMSO): 0.142
CYB561 ΔΔCT (vs DMSO): 1.917
DDIT4 ΔΔCT (vs DMSO): 0.296
DUSP1 ΔΔCT (vs DMSO): 0.387
EDN1 ΔΔCT (vs DMSO): 1.155
EHD3 ΔΔCT (vs DMSO): −1.092
ERRFI1 ΔΔCT (vs DMSO): 0.235
FK8PS ΔΔCT (vs DMSO): −0.948
FOSL2 ΔΔCT (vs DMSO): −0.099
GDPD1 ΔΔCT (vs DMSO): 0.477
GHRHR ΔΔCT (vs DMSO): −1.464
GLUL ΔΔCT (vs DMSO): −1.434
GOT1 ΔΔCT (vs DMSO): 0.230
H6PD ΔΔCT (vs DMSO): 0.377
HNRPLL ΔΔCT (vs DMSO): 3.085
KLF9 ΔΔCT (vs DMSO): −0.019
KLF13 ΔΔCT (vs DMSO): −0.280
LOX ΔΔCT (vs DMSO): 0.721
MERTK ΔΔCT (vs DMSO): 0.020
NFKBIA ΔΔCT (vs DMSO): 0.064
NR3C1 ΔΔCT (vs DMSO): 0.317
PDCD7 ΔΔCT (vs DMSO): 0.021
PDP1 ΔΔCT (vs DMSO): −0.056
PER1 ΔΔCT (vs DMSO): 0.323
PER2 ΔΔCT (vs DMSO): −0.358
PIK3R1 ΔΔCT (vs DMSO): −0.202
PLD1 ΔΔCT (vs DMSO): 0.207
PLEKHF1 ΔΔCT (vs DMSO): −0.347
POU2F1 ΔΔCT (vs DMSO): 0.395
POU2F2 ΔΔCT (vs DMSO): 0.145
RASA3 ΔΔCT (vs DMSO): 0.776
RGS2 ΔΔCT (vs DMSO): 0.849
RHOB ΔΔCT (vs DMSO): 0.626
SESN1 ΔΔCT (vs DMSO): −1.262
SGK1 ΔΔCT (vs DMSO): 2.120
SLC10A6 ΔΔCT (vs DMSO): 1.818
SLC19A2 ΔΔCT (vs DMSO): −0.020
SLC22A5 ΔΔCT (vs DMSO): 0.648
SNTA1 ΔΔCT (vs DMSO): 0.665
SPHK1 ΔΔCT (vs DMSO): −0.581
SPSB1 ΔΔCT (vs DMSO): −0.074
STAT5A ΔΔCT (vs DMSO): −0.227
STAT5B ΔΔCT (vs DMSO): 0.254
TBL1XR1 ΔΔCT (vs DMSO): 0.032
TNF ΔΔCT (vs DMSO): 0.753
TSC22D3 ΔΔCT (vs DMSO): −1.741
USP2 ΔΔCT (vs DMSO): −0.478
USPS4 ΔΔCT (vs DMSO): 0.209
VDR ΔΔCT (vs DMSO): −0.434
VLDLR ΔΔCT (vs DMSO): 1.543
ZFP36 ΔΔCT (vs DMSO): 0.225
ZHX3 ΔΔCT (vs DMSO): −0.657
ZNF281 ΔΔCT (vs DMSO): −0.113

— patent US10456407B2, “Combination therapy for treating cancer” (Epizyme, Inc., priority 2015, dated 2019)
